Results: patent US9714288B2, “Antisense compounds and uses thereof” (The Regents of the University of California, priority 2014, dated 2017)
Converted amounts (≈) assume the structure as drawn. Oligonucleotides are written 5' to 3', each unit as a sugar letter and its base; * is a phosphorothioate linkage, no mark a phosphodiester; rarer units and linkages stand in square brackets, end groups in braces. Plain capitals give the bases only. k = constrained ethyl (cEt); [5mC] = 5-methylcytosine; d = 2'-deoxy (DNA)

Assays:
MXD3 mRNA = MXD3 mRNA levels in K-562 cells by quantitative real-time PCR; assay type: cell-based, human; details: for MXD3 mRNA at 10 μM oligonucleotide (% control): K-562 cells electroporated with 10 μM, ~24 hours, relative to untreated control; for IC50: K-562 cells, MXD3 mRNA, 0-35.0 μM, approximate values
Description: Several hundred antisense oligonucleotides that target human MAX Dimerization Protein 3 (MXD3), GENBANK accession number NT_023133.13 truncated 21540000 to 21577000, SEQ ID NO: 1, were synthesized using standard solid phase oligonucleotide synthetic methods. They are chimeric oligonucleotides (“gapmers”) 16 nucleotides in length, composed of a central “gap” region consisting of 10 2′-deoxynucleotides, which is flanked on both sides (5′ and 3′) by three-nucleotide “wings”. The wings are composed of 4′-CH(CH3)—O-2′ modified nucleotides, also known as constrained ethyl or (S)-cEt nucleotides. The internucleoside (backbone) linkages are phosphorothioate throughout the oligonucleotides. All cytosine residues are 5-methylcytosines. The sequences of selected MXD3 targeting antisense oligonucleotides and their start and stop sites along GENBANK accession number NT_023133.13 truncated 21540000 to 21577000 are shown in Table 1 below.
The antisense oligonucleotides were analyzed for their effects on target mRNA levels. K-562 cells were plated at a density of 50,000 cells per well in 96-well plates and were electroporated with 10 μM oligonucleotide or with no oligonucleotide for untreated controls. After approximately 24 hours, RNA was isolated from the cells, and MXD3 mRNA levels were measured by quantitative real-time PCR using primer probe set RTS4263 (forward: 5′-[…]-3′, SEQ ID NO: 2; reverse: 5′-TGGCCAAGGGTTCCATGT-3′, SEQ ID NO: 3; probe: 5′-CTGCAGCCGCTTGCTCCGG-3′, SEQ ID NO: 4). MXD3 mRNA levels were adjusted according to total RNA content, as measured by RIBOGREEN®. Results for selected oligonucleotides are presented as average percent MXD3 mRNA level, relative to untreated control cells, in Table 1.
A subset of the MXD3 targeting antisense oligonucleotides were selected for dose response analysis in K-562 cells. Cells were electroporated with 0, 2.19, 8.75, or 35.0 μM antisense oligonucleotide and analyzed as described above. Results for selected oligonucleotides are presented as approximate IC50 values in Table 1.

[1] = Tolerability of antisense oligonucleotides in BALB/c mice; assay type: in vivo; details: 50 mg/kg s.c. twice per week for three weeks, #1 most favorable, #13 least favorable
Protocol: Selected antisense oligonucleotides were then tested for tolerability in vivo. Six week old, male BALB/c mice were injected subcutaneously twice per week for three weeks with 50 mg/kg of an antisense oligonucleotide listed in Table 1 or with PBS. Each treatment group consisted of 4 animals. Two days following the final oligonucleotide administration, the mice were sacrificed and plasma transaminase levels, body weights, and organ weights were evaluated relative to the PBS treated group. Isis numbers 632417, 632461, and 632640 had the most favorable tolerability rankings and were selected as leads. Isis No. 632461 targets human, mouse, and monkey MXD3 sequences with no mismatches and was chosen for use in further studies.

Reh cells = test: Reh cell growth, number of live cells (MTT assay); assay type: cell-based, human; details: for IC50: Homo sapiens, experimentally determined, Reh cells; for Average number of live cells × 10^3: Table 9, Reh cells, conjugate 2 μM oligonucleotide, Doxorubicin 2.56 ng/mL, Vincristine 1.18 ng/mL

632407 (antisense k[5mC]*kA*kT*d[5mC]*d[5mC]*dA*d[5mC]*d[5mC]*d[5mC]*dA*d[5mC]*dG*d[5mC]*k[5mC]*kG*kG) [compound 632407]
MXD3 mRNA at 10 μM oligonucleotide (% control) (MXD3 mRNA): 60.5 % control
IC50 (MXD3 mRNA): 1.64 µM
Ranking (tolerability) [1]: 12

632417 (antisense kG*kG*k[5mC]*d[5mC]*d[5mC]*dT*dG*dG*dA*dG*d[5mC]*dG*dA*kA*k[5mC]*k[5mC]) [compound 632417]
MXD3 mRNA at 10 μM oligonucleotide (% control) (MXD3 mRNA): 38.3 % control
IC50 (MXD3 mRNA): 7.05 µM
Ranking (tolerability) [1]: 1

632424 (antisense kA*kG*k[5mC]*d[5mC]*dG*d[5mC]*dA*dG*d[5mC]*d[5mC]*d[5mC]*dA*d[5mC]*k[5mC]*k[5mC]*kT) [compound 632424]
MXD3 mRNA at 10 μM oligonucleotide (% control) (MXD3 mRNA): 94.4 % control
IC50 (MXD3 mRNA): 1.64 µM
Ranking (tolerability) [1]: 9

632460 (antisense kA*kT*kA*dA*d[5mC]*d[5mC]*dA*dT*dG*d[5mC]*dT*d[5mC]*dG*kG*k[5mC]*k[5mC]) [compound 632460]
MXD3 mRNA at 10 μM oligonucleotide (% control) (MXD3 mRNA): 59.0 % control
IC50 (MXD3 mRNA): 2.95 µM
Ranking (tolerability) [1]: 13

632461 (antisense k[5mC]*kA*k[5mC]*dA*dG*dG*dG*dA*d[5mC]*dG*d[5mC]*dA*dT*kA*kA*k[5mC]) [compound 632461]
MXD3 mRNA at 10 μM oligonucleotide (% control) (MXD3 mRNA): 59.8 % control
IC50 (MXD3 mRNA): 8.99 µM
Ranking (tolerability) [1]: 2

632527 (antisense k[5mC]*kA*kT*d[5mC]*dA*dT*dA*dG*d[5mC]*d[5mC]*dA*dG*dG*k[5mC]*kG*k[5mC]) [compound 632527]
MXD3 mRNA at 10 μM oligonucleotide (% control) (MXD3 mRNA): 76.5 % control
IC50 (MXD3 mRNA): 9.23 µM
Ranking (tolerability) [1]: 8

632528 (antisense kA*kG*kG*dA*dA*d[5mC]*dA*dT*d[5mC]*dA*dT*dA*dG*k[5mC]*k[5mC]*kA) [compound 632528]
MXD3 mRNA at 10 μM oligonucleotide (% control) (MXD3 mRNA): 63.6 % control
IC50 (MXD3 mRNA): 5.89 µM
Ranking (tolerability) [1]: 5

632634 (antisense kG*kG*kA*dT*dT*dA*d[5mC]*dT*dG*dT*d[5mC]*d[5mC]*dT*kA*kG*kG) [compound 632634]
MXD3 mRNA at 10 μM oligonucleotide (% control) (MXD3 mRNA): 47.4 % control
IC50 (MXD3 mRNA): 5.71 µM
Ranking (tolerability) [1]: 10

632640 (antisense k[5mC]*kA*kA*dG*d[5mC]*dA*dA*d[5mC]*dA*dA*dG*dT*dG*kG*kG*k[5mC]) [compound 632640]
MXD3 mRNA at 10 μM oligonucleotide (% control) (MXD3 mRNA): 65.6 % control
IC50 (MXD3 mRNA): 0.38 µM
Ranking (tolerability) [1]: 3

632669 (antisense kT*kA*kA*dA*d[5mC]*dA*d[5mC]*dT*dT*dG*dT*d[5mC]*dA*kG*kA*kG) [compound 632669]
MXD3 mRNA at 10 μM oligonucleotide (% control) (MXD3 mRNA): 34.0 % control
IC50 (MXD3 mRNA): 9.05 µM
Ranking (tolerability) [1]: 4

632672 (antisense kA*kT*k[5mC]*d[5mC]*dA*dT*d[5mC]*d[5mC]*dG*dA*dG*dA*dA*k[5mC]*k[5mC]*kA) [compound 632672]
MXD3 mRNA at 10 μM oligonucleotide (% control) (MXD3 mRNA): 50.3 % control
IC50 (MXD3 mRNA): 4.76 µM
Ranking (tolerability) [1]: 6

632673 (antisense k[5mC]*kA*k[5mC]*dA*dT*d[5mC]*dA*dT*d[5mC]*d[5mC]*dA*dT*d[5mC]*k[5mC]*kG*kA) [compound 632673]
MXD3 mRNA at 10 μM oligonucleotide (% control) (MXD3 mRNA): 27.5 % control
IC50 (MXD3 mRNA): 5.58 µM
Ranking (tolerability) [1]: 7

632682 (antisense kG*kT*k[5mC]*dA*dT*dT*d[5mC]*dA*dA*d[5mC]*dA*dA*dG*kA*kA*kG) [compound 632682]
MXD3 mRNA at 10 μM oligonucleotide (% control) (MXD3 mRNA): 28.4 % control
IC50 (MXD3 mRNA): 5.61 µM
Ranking (tolerability) [1]: 11

COc1cccc2c1C(=O)c1c(O)c3c(c(O)c1C2=O)C[C@@](O)(C(=O)CO)C[C@@H]3O[C@H]1C[C@H](N)[C@H](O)[C@H](C)O1 [Doxo, Doxorubicin]
IC50 (Reh cells): 2.56 ng/mL (≈ 4.71 nM)
Average number of live cells × 10^3 (Reh cells; 4 hours): 22.3 × 10^3
Average number of live cells × 10^3 (Reh cells; 8 hours): 22.9 × 10^3
Average number of live cells × 10^3 (Reh cells; 24 hours): 30 × 10^3
Average number of live cells × 10^3 (Reh cells; 48 hours): 37 × 10^3
Average number of live cells × 10^3 (Reh cells; 72 hours): 41.8 × 10^3

CC[C@]1(O)C[C@H]2CN(CCc3c([nH]c4ccccc34)[C@@](C(=O)OC)(c3cc4c(cc3OC)N(C=O)[C@H]3[C@@](O)(C(=O)OC)[C@H](OC(C)=O)[C@]5(CC)C=CCN6CC[C@]43[C@@H]65)C2)C1 [Vcr, Vincristine]
IC50 (Reh cells): 1.18 ng/mL (≈ 1.43 nM)
Average number of live cells × 10^3 (Reh cells; 4 hours): 20.2 × 10^3
Average number of live cells × 10^3 (Reh cells; 8 hours): 19.6 × 10^3
Average number of live cells × 10^3 (Reh cells; 24 hours): 27.8 × 10^3
Average number of live cells × 10^3 (Reh cells; 48 hours): 33.1 × 10^3
Average number of live cells × 10^3 (Reh cells; 72 hours): 34.8 × 10^3
